Results: publication PMC10682951, “Structure-function and rational design of a spider toxin Ssp1a at human voltage-gated sodium channel subtypes” (Frontiers in Pharmacology, 2023)
Bridge positions count the residues as written; N and C are the ends. Peptide text beside a SMILES is read from it.

Key:
Assay type in all cases: cell-based
hNaV1.3 = molecular target: T1, hNaV1.3 (Homo sapiens, UniProt Q9NY46); test: Automated whole-cell patch-clamp (QPatch 16X), hNaV1.3; conditions: for IC50: HEK293 cells expressing hNaV1.3 + β1 subunit, QPatch 16X, holding −80 mV, step to 0 mV, peptide incubated 2 min, 0.1% BSA, mean, SEM and n (3-12)
T1 construct: host or cells: HEK293
T1 sequence (Q9NY46 whole entry): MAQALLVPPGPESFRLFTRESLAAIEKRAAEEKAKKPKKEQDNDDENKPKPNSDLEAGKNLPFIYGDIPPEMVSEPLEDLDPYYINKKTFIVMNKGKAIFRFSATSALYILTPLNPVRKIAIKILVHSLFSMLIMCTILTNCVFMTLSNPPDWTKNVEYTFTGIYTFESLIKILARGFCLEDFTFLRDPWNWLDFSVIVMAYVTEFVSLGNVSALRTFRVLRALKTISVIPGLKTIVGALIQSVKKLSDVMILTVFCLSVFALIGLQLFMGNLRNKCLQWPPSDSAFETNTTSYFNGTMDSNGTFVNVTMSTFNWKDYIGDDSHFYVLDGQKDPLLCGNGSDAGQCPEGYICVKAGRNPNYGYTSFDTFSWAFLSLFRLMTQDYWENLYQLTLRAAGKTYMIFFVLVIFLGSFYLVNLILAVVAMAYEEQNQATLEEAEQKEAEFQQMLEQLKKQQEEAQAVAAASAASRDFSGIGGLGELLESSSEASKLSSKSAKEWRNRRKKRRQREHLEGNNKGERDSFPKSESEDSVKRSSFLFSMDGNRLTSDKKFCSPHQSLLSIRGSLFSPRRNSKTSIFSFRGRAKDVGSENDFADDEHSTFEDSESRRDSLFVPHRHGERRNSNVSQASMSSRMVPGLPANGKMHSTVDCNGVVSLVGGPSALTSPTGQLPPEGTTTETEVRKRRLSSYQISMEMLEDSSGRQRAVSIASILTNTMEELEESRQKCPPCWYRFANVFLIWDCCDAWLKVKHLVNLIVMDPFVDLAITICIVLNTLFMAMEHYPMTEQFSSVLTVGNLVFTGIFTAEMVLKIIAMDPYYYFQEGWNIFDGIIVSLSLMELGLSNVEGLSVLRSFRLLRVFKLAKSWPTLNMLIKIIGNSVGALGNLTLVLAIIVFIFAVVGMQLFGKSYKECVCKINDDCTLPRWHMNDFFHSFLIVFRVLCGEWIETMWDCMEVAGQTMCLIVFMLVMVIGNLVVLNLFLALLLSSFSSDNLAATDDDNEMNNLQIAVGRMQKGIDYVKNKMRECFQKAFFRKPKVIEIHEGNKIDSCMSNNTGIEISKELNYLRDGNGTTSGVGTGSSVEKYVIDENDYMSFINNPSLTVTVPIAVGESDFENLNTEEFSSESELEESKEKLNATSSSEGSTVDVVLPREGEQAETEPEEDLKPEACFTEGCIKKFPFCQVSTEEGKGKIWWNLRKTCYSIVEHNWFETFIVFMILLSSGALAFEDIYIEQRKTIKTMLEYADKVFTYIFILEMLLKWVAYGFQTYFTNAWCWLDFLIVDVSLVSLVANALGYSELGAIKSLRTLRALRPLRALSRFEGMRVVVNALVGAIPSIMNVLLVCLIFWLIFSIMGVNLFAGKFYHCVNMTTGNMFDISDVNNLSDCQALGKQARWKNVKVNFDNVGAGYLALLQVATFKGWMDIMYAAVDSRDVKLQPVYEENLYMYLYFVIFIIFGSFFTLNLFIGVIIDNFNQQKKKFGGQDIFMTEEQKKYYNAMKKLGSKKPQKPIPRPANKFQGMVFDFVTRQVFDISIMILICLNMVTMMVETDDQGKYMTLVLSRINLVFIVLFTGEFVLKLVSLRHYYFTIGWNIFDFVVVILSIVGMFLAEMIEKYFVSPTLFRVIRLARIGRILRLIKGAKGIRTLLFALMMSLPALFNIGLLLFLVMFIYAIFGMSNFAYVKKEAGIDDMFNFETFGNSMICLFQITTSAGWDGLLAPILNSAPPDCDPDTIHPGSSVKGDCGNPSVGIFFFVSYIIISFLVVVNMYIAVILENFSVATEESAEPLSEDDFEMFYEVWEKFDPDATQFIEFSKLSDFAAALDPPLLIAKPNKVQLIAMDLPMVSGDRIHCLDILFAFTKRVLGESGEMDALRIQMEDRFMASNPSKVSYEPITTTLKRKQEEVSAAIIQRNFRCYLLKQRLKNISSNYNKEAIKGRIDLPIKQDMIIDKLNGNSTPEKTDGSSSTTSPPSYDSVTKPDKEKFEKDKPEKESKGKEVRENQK
T1 sequence (Q07699 19-218, further chain): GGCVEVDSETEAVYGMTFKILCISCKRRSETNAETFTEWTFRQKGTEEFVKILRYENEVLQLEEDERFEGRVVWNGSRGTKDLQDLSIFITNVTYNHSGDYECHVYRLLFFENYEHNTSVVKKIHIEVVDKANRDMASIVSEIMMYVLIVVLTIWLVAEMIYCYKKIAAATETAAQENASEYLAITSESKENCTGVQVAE
Procedure, shortened: (§1)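 HEK293 cells stably expressing the channel (human subtypes with β1 subunit), held at −80 mV; 2 min peptide pre-incubation, then 20 ms steps to 0 mV after a 200 ms −120 mV conditioning pulse. Extracellular pH 7.3 with 20 mM TEA-Cl, CsF-based pipette solution, 0.1% BSA; IC50 from four-parameter Hill fit.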

hNaV1.7 = molecular target: T2, hNaV1.7 (Homo sapiens, UniProt Q15858); test: Automated whole-cell patch-clamp (QPatch 16X), hNaV1.7; conditions: HEK293 cells expressing hNaV1.7 + β1 subunit; QPatch 16X; holding −80 mV, step to 0 mV; peptide incubated 2 min; 0.1% BSA; mean, SEM and n (3-9)
T2 construct: host or cells: HEK293
Procedure, shortened: as §1

hNaV1.2 = molecular target: T3, hNaV1.2 (Homo sapiens, UniProt Q99250); test: Automated whole-cell patch-clamp (QPatch 16X), hNaV1.2; conditions: for IC50: HEK293 cells expressing hNaV1.2 + β1 subunit, QPatch 16X, holding −80 mV, step to 0 mV, peptide incubated 2 min, 0.1% BSA, mean, SEM and n (2-7)
T3 construct: host or cells: HEK293
T3 sequence (Q07699 19-218): as the sequence (Q07699 19-218, further chain) above
T3 sequence (Q99250 whole entry): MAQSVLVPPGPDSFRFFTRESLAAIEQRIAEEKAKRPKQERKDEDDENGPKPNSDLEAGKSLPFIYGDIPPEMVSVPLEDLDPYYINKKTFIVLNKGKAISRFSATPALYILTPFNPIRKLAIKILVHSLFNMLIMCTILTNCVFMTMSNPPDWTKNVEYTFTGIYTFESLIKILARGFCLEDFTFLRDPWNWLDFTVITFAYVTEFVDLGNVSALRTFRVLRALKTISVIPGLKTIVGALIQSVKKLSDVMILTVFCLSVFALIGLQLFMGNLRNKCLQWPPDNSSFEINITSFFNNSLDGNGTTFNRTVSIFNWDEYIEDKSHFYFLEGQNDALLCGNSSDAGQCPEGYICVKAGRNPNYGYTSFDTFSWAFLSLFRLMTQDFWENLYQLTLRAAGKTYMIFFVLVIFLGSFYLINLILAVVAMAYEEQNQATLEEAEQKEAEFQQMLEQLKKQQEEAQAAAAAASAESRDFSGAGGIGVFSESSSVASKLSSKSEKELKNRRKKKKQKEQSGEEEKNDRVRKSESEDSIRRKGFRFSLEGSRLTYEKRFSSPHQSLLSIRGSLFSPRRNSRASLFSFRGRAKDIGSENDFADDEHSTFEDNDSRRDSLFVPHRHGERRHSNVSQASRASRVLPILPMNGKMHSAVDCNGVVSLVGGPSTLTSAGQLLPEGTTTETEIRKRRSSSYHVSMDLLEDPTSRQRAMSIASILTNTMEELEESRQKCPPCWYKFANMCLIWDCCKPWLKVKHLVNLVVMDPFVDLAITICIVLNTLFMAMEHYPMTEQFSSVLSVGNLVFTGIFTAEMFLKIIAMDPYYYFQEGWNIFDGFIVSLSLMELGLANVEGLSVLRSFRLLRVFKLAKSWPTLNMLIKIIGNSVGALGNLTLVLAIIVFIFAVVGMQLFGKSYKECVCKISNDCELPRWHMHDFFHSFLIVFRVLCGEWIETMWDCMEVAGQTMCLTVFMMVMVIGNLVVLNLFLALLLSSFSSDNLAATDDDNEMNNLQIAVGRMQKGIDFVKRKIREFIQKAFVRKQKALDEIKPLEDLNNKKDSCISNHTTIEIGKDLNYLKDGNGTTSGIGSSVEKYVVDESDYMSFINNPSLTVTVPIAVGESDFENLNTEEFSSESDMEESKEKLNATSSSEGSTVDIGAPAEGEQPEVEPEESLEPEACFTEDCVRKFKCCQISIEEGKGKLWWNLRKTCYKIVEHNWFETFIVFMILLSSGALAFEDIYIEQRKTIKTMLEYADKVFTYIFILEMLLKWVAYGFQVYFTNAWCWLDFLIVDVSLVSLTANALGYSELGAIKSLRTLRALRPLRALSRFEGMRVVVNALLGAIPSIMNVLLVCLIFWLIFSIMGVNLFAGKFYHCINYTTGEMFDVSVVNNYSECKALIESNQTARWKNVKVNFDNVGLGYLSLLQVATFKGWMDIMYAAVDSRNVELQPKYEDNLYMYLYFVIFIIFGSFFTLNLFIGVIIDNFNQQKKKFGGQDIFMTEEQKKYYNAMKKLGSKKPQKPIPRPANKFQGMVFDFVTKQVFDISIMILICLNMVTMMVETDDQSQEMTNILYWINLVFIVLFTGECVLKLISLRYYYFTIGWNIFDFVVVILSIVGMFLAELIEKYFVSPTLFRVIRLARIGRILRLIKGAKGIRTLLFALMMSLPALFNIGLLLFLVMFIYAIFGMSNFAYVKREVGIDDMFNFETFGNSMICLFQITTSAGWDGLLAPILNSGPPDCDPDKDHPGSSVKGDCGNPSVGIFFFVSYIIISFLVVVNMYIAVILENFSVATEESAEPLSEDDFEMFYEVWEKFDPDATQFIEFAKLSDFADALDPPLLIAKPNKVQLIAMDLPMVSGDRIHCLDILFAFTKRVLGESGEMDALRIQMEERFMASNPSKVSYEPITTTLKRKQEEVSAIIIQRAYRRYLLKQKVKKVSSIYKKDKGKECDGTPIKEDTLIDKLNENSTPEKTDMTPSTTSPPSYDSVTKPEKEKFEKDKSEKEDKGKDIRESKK
Procedure, shortened: as §1

SMILES | IC50 (hNaV1.3) [nM] | IC50 (hNaV1.7) [nM] | IC50 (hNaV1.2) [nM] | inhibition at 3 µM (hNaV1.3; 3 µM peptide, QPatch, read-out: Inhibition (block) of hNaV1.3 at 3 µM) [%] | hNaV1.2-selectivity against hNaV1.3 (hNaV1.2; ratio of potencies hNaV1.3 / hNaV1.2) [fold] | hNaV1.2-selectivity against hNaV1.7 (hNaV1.2; ratio of potencies hNaV1.7 / hNaV1.2) [fold]
CC(C)C[C@H](NC(=O)[C@H](CC(=O)O)NC(=O)[C@H](Cc1ccc(O)cc1)NC(=O)[C@H](CCCNC(=N)N)NC(=O)[C@@H]1CSSC[C@@H]2NC(=O)[C@H](CCCCN)NC(=O)[C@H](CC(N)=O)NC(=O)[C@H](CC(N)=O)NC(=O)[C@H](CC(N)=O)NC(=O)[C@@H]3CCCN3C(=O)[C@H](CC(=O)O)NC(=O)[C@@H]3CSSC[C@H](NC(=O)[C@H](C(C)C)NC(=O)[C@H](Cc4ccc(O)cc4)NC(=O)CNC(=O)[C@H](CCC(=O)O)NC(=O)[C@H](CSSC[C@H](NC(=O)[C@H](CC(=O)O)NC(=O)CN)C(=O)N[C@@H](C)C(=O)NCC(=O)N[C@@H](Cc4c[nH]c5ccccc45)C(=O)N[C@@H](Cc4ccccc4)C(=O)N[C@@H](CO)C(=O)NCC(=O)N3)NC2=O)C(=O)N[C@@H](Cc2c[nH]cn2)C(=O)N[C@@H](Cc2c[nH]c3ccccc23)C(=O)N[C@@H](CCCCN)C(=O)N[C@@H](Cc2ccc(O)cc2)C(=O)N2CCC[C@H]2C(=O)N[C@@H](Cc2c[nH]c3ccccc23)C(=O)N1)C(=O)O [L3A] | 311 | 170 | 154 |  |  | 
CC(C)C[C@@H]1NC(=O)[C@@H](NC(=O)[C@H](CC(=O)O)NC(=O)CN)CSSC[C@@H]2NC(=O)[C@@H]3CSSC[C@@H](C(=O)N[C@@H](CCCNC(=N)N)C(=O)N[C@@H](Cc4ccc(O)cc4)C(=O)N[C@@H](CC(=O)O)C(=O)N[C@@H](C)C(=O)O)NC(=O)[C@H](Cc4c[nH]c5ccccc45)NC(=O)[C@@H]4CCCN4C(=O)[C@H](Cc4ccc(O)cc4)NC(=O)[C@H](CCCCN)NC(=O)[C@H](Cc4c[nH]c5ccccc45)NC(=O)[C@H](Cc4c[nH]cn4)NC(=O)[C@H](CSSC[C@H](NC(=O)CNC(=O)[C@H](CO)NC(=O)[C@H](Cc4ccccc4)NC(=O)[C@H](Cc4c[nH]c5ccccc45)NC(=O)CNC1=O)C(=O)N[C@@H](CC(=O)O)C(=O)N1CCC[C@H]1C(=O)N[C@@H](CC(N)=O)C(=O)N[C@@H](CC(N)=O)C(=O)N[C@@H](CC(N)=O)C(=O)N[C@@H](CCCCN)C(=O)N3)NC(=O)[C@H](C(C)C)NC(=O)[C@H](Cc1ccc(O)cc1)NC(=O)CNC(=O)[C@H](CCC(=O)O)NC2=O [L33A] | > 3000 | 448 | 396 |  |  | 
CC(C)C[C@H](NC(=O)[C@H](CC(=O)O)NC(=O)[C@H](Cc1ccc(O)cc1)NC(=O)[C@H](CCCNC(=N)N)NC(=O)[C@@H]1CSSC[C@@H]2NC(=O)[C@H](CCCCN)NC(=O)[C@H](CC(N)=O)NC(=O)CNC(=O)[C@H](CC(N)=O)NC(=O)[C@@H]3CCCN3C(=O)[C@H](CC(=O)O)NC(=O)[C@@H]3CSSC[C@H](NC(=O)[C@H](C(C)C)NC(=O)[C@H](Cc4ccc(O)cc4)NC(=O)CNC(=O)[C@H](CCC(=O)O)NC(=O)[C@H](CSSC[C@H](NC(=O)[C@H](CC(=O)O)NC(=O)CN)C(=O)N[C@@H](CC(C)C)C(=O)NCC(=O)N[C@@H](Cc4c[nH]c5ccccc45)C(=O)N[C@@H](Cc4ccccc4)C(=O)N[C@@H](CO)C(=O)NCC(=O)N3)NC2=O)C(=O)N[C@@H](Cc2c[nH]cn2)C(=O)N[C@@H](Cc2c[nH]c3ccccc23)C(=O)N[C@@H](CCCCN)C(=O)N[C@@H](Cc2ccc(O)cc2)C(=O)N2CCC[C@H]2C(=O)N[C@@H](Cc2c[nH]c3ccccc23)C(=O)N1)C(=O)O [N13G] | 287 | 287 | 280 |  |  | 
CC(C)C[C@H](NC(=O)[C@H](CC(=O)O)NC(=O)[C@H](Cc1ccc(O)cc1)NC(=O)[C@H](CCCNC(=N)N)NC(=O)[C@@H]1CSSC[C@@H]2NC(=O)[C@H](CCCCN)NC(=O)[C@H](C)NC(=O)[C@H](CC(N)=O)NC(=O)[C@H](CC(N)=O)NC(=O)[C@@H]3CCCN3C(=O)[C@H](CC(=O)O)NC(=O)[C@@H]3CSSC[C@H](NC(=O)[C@H](C(C)C)NC(=O)[C@H](Cc4ccc(O)cc4)NC(=O)CNC(=O)[C@H](CCC(=O)O)NC(=O)[C@H](CSSC[C@H](NC(=O)[C@H](CC(=O)O)NC(=O)CN)C(=O)N[C@@H](CC(C)C)C(=O)NCC(=O)N[C@@H](Cc4c[nH]c5ccccc45)C(=O)N[C@@H](Cc4ccccc4)C(=O)N[C@@H](CO)C(=O)NCC(=O)N3)NC2=O)C(=O)N[C@@H](Cc2c[nH]cn2)C(=O)N[C@@H](Cc2c[nH]c3ccccc23)C(=O)N[C@@H](CCCCN)C(=O)N[C@@H](Cc2ccc(O)cc2)C(=O)N2CCC[C@H]2C(=O)N[C@@H](Cc2c[nH]c3ccccc23)C(=O)N1)C(=O)O [N14A] | 784 | 252 | 224 |  |  | 
CC(C)C[C@H](NC(=O)[C@H](CC(=O)O)NC(=O)[C@H](Cc1ccc(O)cc1)NC(=O)[C@H](CCCNC(=N)N)NC(=O)[C@@H]1CSSC[C@@H]2NC(=O)[C@H](CCCCN)NC(=O)[C@H](CC(=O)O)NC(=O)[C@H](CC(N)=O)NC(=O)[C@H](CC(N)=O)NC(=O)[C@@H]3CCCN3C(=O)[C@H](CC(=O)O)NC(=O)[C@@H]3CSSC[C@H](NC(=O)[C@H](C(C)C)NC(=O)[C@H](Cc4ccc(O)cc4)NC(=O)CNC(=O)[C@H](CCC(=O)O)NC(=O)[C@H](CSSC[C@H](NC(=O)[C@H](CC(=O)O)NC(=O)CN)C(=O)N[C@@H](CC(C)C)C(=O)NCC(=O)N[C@@H](Cc4c[nH]c5ccccc45)C(=O)N[C@@H](Cc4ccccc4)C(=O)N[C@@H](CO)C(=O)NCC(=O)N3)NC2=O)C(=O)N[C@@H](Cc2c[nH]cn2)C(=O)N[C@@H](Cc2c[nH]c3ccccc23)C(=O)N[C@@H](CCCCN)C(=O)N[C@@H](Cc2ccc(O)cc2)C(=O)N[C@@H](CCCNC(=N)N)C(=O)N[C@@H](Cc2c[nH]c3ccccc23)C(=O)N1)C(=O)O [N14D/P27R] (H-GDCLGWFSGCDPNNDKCCEGYVCHWKYRWCRYDL-OH; disulfide 3-18, 10-23, 17-30) | > 3000 | 57 | 87 | ~40 |  | 
CC(C)C[C@H](NC(=O)[C@H](CC(=O)O)NC(=O)[C@H](Cc1ccc(O)cc1)NC(=O)[C@H](CCCNC(=N)N)NC(=O)[C@@H]1CSSC[C@@H]2NC(=O)[C@H](CCCCN)NC(=O)[C@H](CC(=O)O)NC(=O)[C@H](CC(N)=O)NC(=O)[C@H](CC(N)=O)NC(=O)[C@@H]3CCCN3C(=O)[C@H](CC(=O)O)NC(=O)[C@@H]3CSSC[C@H](NC(=O)[C@H](C(C)C)NC(=O)[C@H](Cc4ccc(O)cc4)NC(=O)CNC(=O)[C@H](CCC(=O)O)NC(=O)[C@H](CSSC[C@H](NC(=O)[C@H](CC(=O)O)NC(=O)CN)C(=O)N[C@@H](CC(C)C)C(=O)NCC(=O)N[C@@H](Cc4c[nH]c5ccccc45)C(=O)N[C@@H](Cc4ccccc4)C(=O)N[C@@H](CO)C(=O)NCC(=O)N3)NC2=O)C(=O)N[C@@H](Cc2c[nH]cn2)C(=O)N[C@@H](Cc2c[nH]c3ccccc23)C(=O)N[C@@H](CCCCN)C(=O)N[C@@H](Cc2ccc(O)cc2)C(=O)N2CCC[C@H]2C(=O)N[C@@H](Cc2c[nH]c3ccccc23)C(=O)N1)C(=O)O [N14D] | 900 | > 3000 | 126 |  | 7 | > 24
